In US8618303B2, “Pyrrolidine derivatives” (Hoffmann-La Roche Inc., priority 2011, dated 2013):
Where two headings read alike, the source gives them in different places.

What was measured:
human NK3 receptor = human NK3 receptor (Homo sapiens (Human), UniProt P29371); test: [3H]SR142801 competition binding assay
Method: hNK3 receptor binding experiment were performed using [^3H]SR142801 (Catalog No. TRK1035, specific activity: 74.0 Ci/mmol, Amersham, GE Healthcare UK limited, Buckinghamshire, UK) and membrane isolated from HEK293 cells transiently expressing recombinant human NK3 receptor. After thawing, the membrane homogenates were centrifuged at 48,000×g for 10 min at 4° C., the pellets were resuspended in the 50 mM Tris-HCl, 4 mM MnCl2, 1 μM phosphoramidon, 0.1% BSA binding buffer at pH 7.4 to a final assay concentration of 5 μg protein/well. […] At the end of the incubation, membranes were filtered onto unitfilter (96-well white microplate with bonded GF/C filter preincubated 1 h in 0.3% PEI+0.3% BSA, Packard BioScience, Meriden, Conn.) with a Filtermate 196 harvester (Packard BioScience) and washed 4 times with ice-cold 50 mM Tris-HCl, pH 7.4 buffer. Nonspecific binding was measured in the presence of 10μM SB222200 for both radioligands. The radioactivity on the filter was counted (5 min) on a Packard Top-count microplate scintillation counter with quenching correction after addition of 45 μl of microscint 40 (Canberra Packard S.A., Ziirich, Switzerland) and shaking for 1 h. Inhibition curves were fitted according to the Hill equation: y=100/(1+(x/IC50), where nH=slope factor using Excel-fit 4 software (Microsoft). IC50 values were derived from the inhibition curve and the affinity constant (Ki) values were calculated using the Cheng-Prussoff equation Ki =IC50/(1+[L]/KD) where [L] is the concentration of radioligand and KD is its dissociation constant at the receptor, derived from the saturation isotherm. All experiments were performed in duplicate and the mean±standard error (SEM) of the individual Ki values was calculated.

[1] = phase II trial; cited from earlier work
[2] = membranes from HEK293 cells transiently expressing recombinant human NK3 receptor, [3H]SR142801, Ki from IC50 by Cheng-Prussoff, read-out: Ki (uM) hNK3

human NK3 receptor, sequence (P29371 whole entry): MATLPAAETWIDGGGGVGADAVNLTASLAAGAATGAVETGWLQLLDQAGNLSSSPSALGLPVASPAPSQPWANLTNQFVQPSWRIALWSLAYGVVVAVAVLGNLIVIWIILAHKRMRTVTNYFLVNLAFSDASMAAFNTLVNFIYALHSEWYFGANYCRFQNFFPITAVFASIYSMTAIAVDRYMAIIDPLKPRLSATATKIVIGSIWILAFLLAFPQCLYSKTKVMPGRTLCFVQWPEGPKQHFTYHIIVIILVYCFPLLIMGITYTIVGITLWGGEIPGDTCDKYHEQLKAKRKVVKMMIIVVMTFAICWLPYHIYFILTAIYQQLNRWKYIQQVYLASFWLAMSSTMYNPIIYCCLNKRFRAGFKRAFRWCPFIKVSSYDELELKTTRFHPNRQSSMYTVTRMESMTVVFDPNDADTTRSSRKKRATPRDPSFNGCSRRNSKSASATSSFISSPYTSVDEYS

| Structure (SMILES) | Ki (human NK3 receptor; [2]) | Ki (human NK3 receptor) | further results |
| --- | --- | --- | --- |
| CN(C(=O)Oc1ccc(F)cc1)[C@@H]1CN(C(=O)C2CCN(c3ccc(C#N)cn3)CC2)C[C@@]1(C)c1ccc(Cl)cc1 (racemic) [Example 30, rac-[(3S,4R)-4-(4-Chloro-phenyl)-1-(5′-cyano-3,4,5,6-tetrahydro-2H-[1,2′]bipyridinyl-4-carbonyl)-4-methyl-pyrrolidin-3-yl]-methyl-carbamic acid 4-fluoro-phenyl ester] | 0.0053 µM |  |  |
| CC(=O)c1ccc(N2CCC(C(=O)N3C[C@@H](N(C)C(=O)Oc4ccc(F)cc4)[C@](C)(c4ccc(Cl)cc4)C3)CC2)nc1 (racemic) [Example 31, rac-[(3S,4R)-1-(5′-Acetyl-3,4,5,6-tetrahydro-2H-[1,2′]bipyridinyl-4-carbonyl)-4-(4-chloro-phenyl)-4-methyl-pyrrolidin-3-yl]-methyl-carbamic acid 4-fluoro-phenyl ester] |  | 0.0081 µM |  |
| CN(C(=O)Oc1ccc(F)cc1)[C@@H]1CN(C(=O)C2CCN(c3ccc(Cl)cn3)CC2)C[C@@]1(C)c1ccc(Cl)cc1 (racemic) [Example 32, rac-[(3S,4R)-4-(4-Chloro-phenyl)-1-(5′-chloro-3,4,5,6-tetrahydro-2H-[1,2′]bipyridinyl-4-carbonyl)-4-methyl-pyrrolidin-3-yl]-methyl-carbamic acid 4-fluoro-phenyl ester] | 0.0099 µM |  |  |
| CN(C(=O)Oc1ccc(F)cc1)[C@@H]1CN(C(=O)C2CCN(c3ccc(C(F)(F)F)cn3)CC2)C[C@@]1(C)c1ccc(Cl)cc1 (racemic) [Example 33, rac-[(3S,4R)-4-(4-Chloro-phenyl)-4-methyl-1-(5′-trifluoromethyl-3,4,5,6-tetrahydro-2H-[1,2′]bipyridinyl-4-carbonyl)-pyrrolidin-3-yl]-methyl-carbamic acid 4-fluoro-phenyl ester] | 0.02 µM |  |  |
| COc1ccc(N2CCC(C(=O)N3C[C@@H](N(C)C(=O)Oc4ccc(F)cc4)[C@](C)(c4ccc(Cl)cc4)C3)CC2)nn1 (racemic) [Example 35, rac-{(3S,4R)-4-(4-Chloro-phenyl)-1-[1-(6-methoxy-pyridazin-3-yl)-piperidine-4-carbonyl]-4-methyl-pyrrolidin-3-yl}-methyl-carbamic acid 4-fluoro-phenyl ester] |  | 0.0213 µM |  |
| CN(C(=O)Oc1ccc(F)cc1)[C@@H]1CN(C(=O)c2ccc(N3CCCCC3=O)cc2)C[C@@]1(C)c1ccc(Cl)cc1 (racemic) [Example 36, rac-{(3S,4R)-4-(4-Chloro-phenyl)-4-methyl-1-[4-(2-oxo-piperidin-1-yl)-benzoyl]-pyrrolidin-3-yl}-methyl-carbamic acid 4-fluoro-phenyl ester] | 0.997 µM |  |  |
| CN(C(=O)Oc1ccc(F)cc1)[C@@H]1CN(C(=O)C2CCN(C3CCCCC3)CC2)C[C@@]1(C)c1ccc(Cl)cc1 [Example 25, [(3S,4R)-4-(4-Chloro-phenyl)-1-(1-cyclohexyl-piperidine-4-carbonyl)-4-methyl-pyrrolidin-3-yl]-methyl-carbamic acid 4-fluoro-phenyl ester] |  | 0.0915 µM |  |
| CC(=O)N(C)C1(c2ccccc2)CCN(CCC[C@]2(c3ccc(Cl)c(Cl)c3)CCCN(C(=O)c3ccccc3)C2)CC1 [SR 142,801, Osanetant] |  |  | activity on negative symptoms of schizophrenia [1]: inactive in the treatment of negative symptoms; activity on positive symptoms of schizophrenia [1]: active on positive symptoms of schizophrenia |
